Experimental data taken from PMC11111408, “Concurrent inhibition of oncogenic and wild-type RAS-GTP for cancer therapy” (Nature, 2024).
pEC50: −log10 of the molar value. Where two headings read alike, the source gives them in different places.

System: panel of 183 cancer cell lines
Assay: Cell panel of 183 cancer cell lines, viability (CTG) at Crown Bioscience
Assay type: cell-based
Conditions: Homo sapiens
Text: The panel consisted of cell lines with any substitution at position 12 of KRAS, NRAS or HRAS (KRAS(G12X), NRAS(G12X), HRAS(G12X)); substitutions in KRAS, NRAS or HRAS at any position other than 12, 13 and 61 (KRAS(other/VUS), NRAS(other/VUS), HRAS(other/VUS)); other oncogenic mutations in the RAS pathway (ABL1, ALK, ARAF, BRAF, CBL, EGFR, ERBB2, ERBB3, ERBB4, ERRFI1, FGFR1, FGFR2, FGFR3, FGFR4, FLT3, HRAS, IGF1R, JAK2, KIT, MAP2K1, MAP2K2, MAPK1, MET, NF1, NRAS, NTRK1, NTRK2, NTRK3, PDGFRA, PTPN11, RAC1, RAF1, RASA1, RET, RIT1, ROS1 and SOS1); and no oncogenic mutations in the RAS pathway. […] Cells were incubated for 120 h, and cell viability was determined using the CellTiter-Glo Luminescent Cell Viability Assay (CTG) (Promega, G7572) according to the manufacturer’s instructions.

SMILES: CCn1c(-c2cc(N3CCN(C4CC4)CC3)cnc2[C@H](C)OC)c2c3cc(ccc31)-c1csc(n1)C[C@H](NC(=O)[C@H]1[C@@H]3COC[C@@H]31)C(=O)N1CCC[C@H](N1)C(=O)OCC(C)(C)C2 [RMC-7977]
- EC50 (786-0, read-out: RMC-7977 EC50 (M), 786O, RAS pathway WT, Kidney): > 1e-06 M
- EC50 (A 172, read-out: RMC-7977 EC50 (M), A172, RAS pathway WT, Brain&Nerves): 1.19e-07 M
- EC50 (A549, read-out: RMC-7977 EC50 (M), A549, KRAS G12S, Lung): 5.13e-09 M
- EC50 (A-375, read-out: RMC-7977 EC50 (M), A375, BRAF V600E, Skin): > 1e-06 M
- EC50 (A-427, read-out: RMC-7977 EC50 (M), A427, KRAS G12D, Lung): 4.79e-09 M
- EC50 (AN3-CA, read-out: RMC-7977 EC50 (M), AN3CA, RAS pathway WT, Uterus): 2.87e-08 M
- EC50 (ASPC1, read-out: RMC-7977 EC50 (M), ASPC1, KRAS G12D, Pancreas): 2.63e-09 M
- EC50 (AU565, read-out: RMC-7977 EC50 (M), AU565, RAS pathway WT, Breast): > 1e-06 M
- pEC50 (BRAF^MUT Other cell lines, read-out: median EC50): 7.12
- pEC50 (BRAF^V600E cell lines, read-out: median EC50): < 6.00
- EC50 (BXPC-3, read-out: RMC-7977 EC50 (M), BXPC3, BRAF mut other, Pancreas): 2.97e-08 M
- EC50 (CAL-51, read-out: RMC-7977 EC50 (M), CAL51, NRAS Y137H, Breast): 2.88e-08 M
- EC50 (CAL-62, read-out: RMC-7977 EC50 (M), CAL62, KRAS G12R, HN/Thyroid): 2.29e-09 M
- pEC50 (CAPAN-1, read-out: G12X (62), RMC-7977 EC50 (CTG), CAPAN1, KRAS G12X): 8.85
- EC50 (CAPAN-1, read-out: RMC-7977 EC50 (M), CAPAN1, KRAS G12V, Pancreas): 1.41e-09 M
- pEC50 (CFPAC-1, read-out: G12X (62), RMC-7977 EC50 (CTG), CFPAC1, KRAS G12X): 8.53
- EC50 (CFPAC-1, read-out: RMC-7977 EC50 (M), CFPAC1, KRAS G12V, Pancreas): 2.95e-09 M
- EC50 (CHL-1, read-out: RMC-7977 EC50 (M), CHL1, RAS pathway WT, Skin): 2.61e-08 M
- EC50 (CHP-212, read-out: RMC-7977 EC50 (M), CHP212, NRAS Q61K, Brain&Nerves): 1.58e-09 M
- EC50 (COLO 201, read-out: RMC-7977 EC50 (M), COLO201, BRAF V600E, Large intestine/Colorectum): > 1e-06 M
- pEC50 (COR-L23, read-out: G12X (62), RMC-7977 EC50 (CTG), CORL23, KRAS G12X): 8.56
- EC50 (COR-L23, read-out: RMC-7977 EC50 (M), CORL23, KRAS G12V, Lung): 2.75e-09 M
- EC50 (Calu-1, read-out: RMC-7977 EC50 (M), CALU1, KRAS G12C, Lung): 6.61e-10 M
- EC50 (Calu-6, read-out: RMC-7977 EC50 (M), CALU6, KRAS Q61K, Lung): 1.86e-09 M
- pEC50 (Capan-2, read-out: G12X (62), RMC-7977 EC50 (CTG), CAPAN2, KRAS G12X): 9.48
- EC50 (Capan-2, read-out: RMC-7977 EC50 (M), CAPAN2, KRAS G12V, Pancreas): 3.31e-10 M
- EC50 (CoC1, read-out: RMC-7977 EC50 (M), COC1, KRAS G12D, Ovary): 1.58e-09 M
- EC50 (DLD-1, read-out: RMC-7977 EC50 (M), DLD1, KRAS G13D, Large intestine/Colorectum): 4.57e-08 M
- EC50 (DMS-53, read-out: RMC-7977 EC50 (M), DMS53, RAS pathway WT, Lung): 7.15e-08 M
- EC50 (DMS-114, read-out: RMC-7977 EC50 (M), DMS114, RAS pathway WT, Lung): 7.09e-07 M
- EC50 (DU-145, read-out: RMC-7977 EC50 (M), DU145, RAS pathway WT, Prostate): 1.72e-08 M
- EC50 (DV-90, read-out: RMC-7977 EC50 (M), DV90, KRAS G13D, Lung): 2.95e-08 M
- EC50 (EBC-1, read-out: RMC-7977 EC50 (M), EBC1, MET amp, Lung): 1.13e-09 M
- EC50 (FTC-133, read-out: RMC-7977 EC50 (M), FTC133, NF1 LOF, HN/Thyroid): > 1e-06 M
- EC50 (HCC44, read-out: RMC-7977 EC50 (M), HCC44, KRAS G12C, Lung): 5.25e-09 M
- EC50 (HCC70, read-out: RMC-7977 EC50 (M), HCC70, RAS pathway WT, Breast): > 1e-06 M
- EC50 (HCC78, read-out: RMC-7977 EC50 (M), HCC78, ROS1 fusion, Lung): 7.49e-09 M
- pEC50 (HCC827, HCC827, RTKMUT/fusion, read-out: EC50): 8.52
- EC50 (HCC827, read-out: RMC-7977 EC50 (M), HCC827, EGFR mut, Lung): 3.03e-09 M
- EC50 (HCC1187, read-out: RMC-7977 EC50 (M), HCC1187, RAS pathway WT, Breast): 2.7e-07 M
- EC50 (HCC1428, read-out: RMC-7977 EC50 (M), HCC1428, RAS pathway WT, Breast): > 1e-06 M
- EC50 (HCC1500, read-out: RMC-7977 EC50 (M), HCC1500, RAS pathway WT, Breast): 5.01e-08 M
- pEC50 (HCC2279, RTKMUT/fusion, read-out: EC50): 8.35
- EC50 (HCC2935, read-out: RMC-7977 EC50 (M), HCC2935, EGFR mut, Lung): 2.39e-09 M
- pEC50 (HCC4006, HCC4006, RTKMUT/fusion, read-out: EC50): 8.62
- EC50 (HCC4006, read-out: RMC-7977 EC50 (M), HCC4006, EGFR mut, Lung): 2.39e-09 M
- EC50 (HCT-8, read-out: RMC-7977 EC50 (M), HCT8, KRAS G13D, Large intestine/Colorectum): 3.02e-08 M
- EC50 (HCT-15, read-out: RMC-7977 EC50 (M), HCT15, KRAS G13D, Large intestine/Colorectum): 2.75e-07 M
- EC50 (HCT-116, read-out: RMC-7977 EC50 (M), HCT116, KRAS G13D, Large intestine/Colorectum): 6.61e-09 M
- EC50 (HEC-1-A, read-out: RMC-7977 EC50 (M), HEC1A, KRAS G12D, Uterus): 1.74e-09 M
- EC50 (HGC-27, read-out: RMC-7977 EC50 (M), HGC27, NF1 LOF, Stomach): > 1e-06 M
- EC50 (HPAC, read-out: RMC-7977 EC50 (M), HPAC, KRAS G12D, Pancreas): 1.1e-08 M
- EC50 (HPAF-II, read-out: RMC-7977 EC50 (M), HPAFII, KRAS G12D, Pancreas): 3.24e-09 M
- EC50 (HT-1080, read-out: RMC-7977 EC50 (M), HT1080, NRAS Q61K, Soft tissue): 2.34e-09 M
- EC50 (HepG2, read-out: RMC-7977 EC50 (M), HEPG2, NRAS Q61L, Liver): 6.76e-09 M
- EC50 (Hs766T, read-out: RMC-7977 EC50 (M), HS766T, KRAS Q61H, Pancreas): > 1e-06 M
- EC50 (Hs-578T, read-out: RMC-7977 EC50 (M), HS578T, HRAS G12D, Breast): 1.45e-08 M
- EC50 (HuCCT-1, read-out: RMC-7977 EC50 (M), HUCCT1, KRAS G12D, Liver/Bile duct): 5.13e-09 M
- EC50 (HuP-T4, read-out: RMC-7977 EC50 (M), HUPT4, KRAS G12V, Pancreas): 2.51e-09 M
- EC50 (JHH7, read-out: RMC-7977 EC50 (M), JHH7, RAS pathway WT, Liver): 8.08e-08 M
